# According to US20240246960A1 (adMare Therapeutics Society, priority 2021, published 2024):
# Tests used:
# [1] = Microsomal stability assay, human liver microsomes; format: in vitro ADME; conditions: for microsomal CLint at 0.1 uM: both sexes, human, liver microsomes, pH 7.4, 0.1 mg/mL microsomes, 0.1 uM compound
# Protocol: Samples were then mixed and centrifuged. Supernatants were used for HPLC-MS/MS analysis. […] Peak areas corresponding to the test compound were recorded.
# [2] = system: FaDu tumour xenograft; test: In vivo clonogenic survival (CS-ER), FaDu tumour xenografts ± radiation; conditions: Rag2M mice
# Protocol: FaDu tumour xenograft-bearing Rag2M mice were treated with single administrations of test compounds at indicated doses±radiation as indicated, at time 0.
# Mice were irradiated at 1 h post compound administration (unless otherwise indicated), with 300 KV X-rays and a 10 mA current from a Precision XRAD 300 machine (USA) with a beam-hardening filter (2 mm Al+0.25 mm Cu+0.75 mm Sn) and an adjustable site to specimen distance (SSD) at a dose of 8-10 Gy, delivered at a rate of ˜1.05 Gy/min.
# Mice were terminated at times after irradiation as indicated, and tumour tissues excised. A portion of tumour approximately 300-500 mg was briefly minced using sterile scissors and placed in a pre-weighed gentleMACS C tube (Miltenyi Biotec cat #130-093-237) and weighed with combined tumour+tube mass recorded. A 5 mL aliquot of enzyme cocktail comprising of trypsin/DNase/collagenase/EDTA-Na2 in PBS (1 mg/ml trypsin+0.26 mg/ml DNase+0.21 mg/ml collagenase+2 mM EDTA-Na2) was added to the tube, which is then run on the gentleMACS Dissociator disaggregation system. Tubes were then incubated at 37° C. and continually rotated for 20 min before again running on the gentleMACS Dissociator program. Samples were then diluted with 5 ml MEM medium containing 5% FBS and filtered (Falcon cell strainer 100 μm, cat #352360). After centrifugation (1100 rpm for 6 minutes at 4° C.) supernatant was aspirated and the cells resuspended in 4 ml cold growth medium (MEM+10% FBS)+50 ul DNase (5 mg/ml DNase solution). Cell numbers were counted from the same cell solution using a hemacytometer. Appropriate dilutions (control: 10,000 cells/ml; 8Gy: 400,000 cells/ml; drug+radiation treated; 500,000 cells/ml) were made and cells then plated in triplicate: control: 100 μl and 300 μl (1000 and 3000 cells/6 cm tissue culture plate); 8Gy: 30 μl, 105 μl and 350 μl (12000, 42000 cells/6 cm plates and 140000 cells/10 cm plate); drug+8Gy: 70 μl, 300 μl, 1.2 ml (35000 and 150000 cells/6 cm plates and 600000 cells/10 cm plates—only duplicate). Plates were incubated at 37° C. (in a 5% CO2, 5% O2 and balance N2 environment) for 14 days. For a final and accurate automated live-cell counting a solution of Hoechst33342 (0.01 mg/ml)+Propidium Iodide (0.004 mg/ml) in 0.9% saline was mixed with an appropriate cell number dilution of the samples in 96 well plates (50 ul staining solution+50 ul cell suspension of 10000 cells/ml) and images are taken of the wells and cell numbers are calculated by a computer program.
# After 14 days plates were removed from the incubator, rinsed with PBS and stained with cold 2 g/L Malachite green oxalate salt solution (Sigma-Aldrich, cat #M6880) for 30 minutes at room temperature. Plates were rinsed with distilled water and dried. Pictures were obtained of the plates and colonies consisting of 50 or more cells were counted using a Stuart Scientific colony counter.
# All plates with colonies were analyzed except when colony numbers were so high that the edges of individual colonies could not be determined accurately. Plating efficiency (PE) of each tumour sample was calculated first: PE is a ratio of the number of colonies to the number of cells seeded (sum of all the colonies countable in all the plates of the same sample divided by the sum of cells plated in the same plates). The PE of control tumours was averaged for the calculation of surviving fraction (SF): SF is based on the number of colonies formed in drug and/or radiation treated cells relative to that of untreated control (PE of treated tumor sample divided by PE of control). All treated data points were compared separately to the average of the controls. Finally, a Clonogenic Survival Enhancement Ratio (CS-ER) was calculated: the SF of irradiated control groups were divided by the SF of treatment groups to determine treatment group-specific CS-ER values, and these were assigned scores based on defined response ranges: values >6=A, 4-6=B, <4=C.
# [3] = system: FaDu tumour xenograft; test: In vivo tumour growth delay (TGD-ER), FaDu tumour xenografts + radiation; conditions: PO
# Protocol: FaDu tumour xenograft-bearing animals were monitored for tumour growth and once average tumour size reached approximately 100-250 mm3, animals were assigned to treatment cohorts using stratified randomization. Animals were weighted and treated with doses of test compounds at 10, 30 or 100 mg/kg PO from 1, 3 or 10 mg/mL formulations at time 0.
# For BID dosing regimens, at 8 h following the first injection, animals were again administered with test compound at the same dose as their previous administration. Animals were weighed and had tumours measured using calipers three times weekly until the endpoint of maximum tumour volume, 1000 mm3, was reached and animals were euthanized. Tumour volumes were calculated according to the equation L×W^2/2 with the length (mm) being the longer axis of the tumour; in the case that no tumour was palpable, tumour volumes were recorded as 0 mm^3.
# Data were calculated as tumour growth normalized to day 0 measurements, with time to tumour doubling determined. Average time to tumour doubling for each group was used to determine a Tumour Growth Delay Enhancement Ratio (TGD-ER): the time to doubling for treatment groups were divided by the time to doubling for irradiation-alone groups to determine group-specific TGD-ER values, and these were assigned scores based on defined response ranges: values >2.5=A, 1-2.5=B, <1=C.
Compound,Microsomal Stability (human) % rem. 60 min [1],microsomal CLint at 0.1 uM [1],"CS-ER Range Score ([2]; 30 mpk + 8 Gy, 2 h)","CS-ER Range Score ([2]; 30 mpk + 8 Gy, 4 h)",other results
"c1cnc(N[C@H]2CC[C@@H](Oc3nc(N4CCOCC4)cc4ncccc34)CC2)nc1 [Compound 20a, N-((1s,4s)-4-((7-Morpholino-1,6-naphthyridin-5-yl)oxy)cyclohexyl)pyrimidin-2-amine]",F (% remaining = 25-50%),> 116 µL/min/mg,–,–,–
"O=C(N[C@H]1CC[C@@H](Oc2nc(N3CCOCC3)cc3ncccc23)CC1)c1ccncc1 [Compound 113, N-((1s,4s)-4-((7-morpholino-1,6-naphthyridin-5-yl)oxy)cyclohexyl)isonicotinamide]",F (% remaining = 25-50%),> 116 µL/min/mg,C (<4=C),B (4-6=B),–
"O=C(N[C@H]1CC[C@@H](Oc2nc(N3CCOCC3)cc3ncccc23)CC1)c1ccnnc1 [Compound 121, N-((1s,4s)-4-((7-morpholino-1,6-naphthyridin-5-yl)oxy)cyclohexyl)pyridazine-4-carboxamide]",G (% remaining = 50-75%),< 116 µL/min/mg,–,C (<4=C),–
"COc1cnc(N[C@H]2CC[C@@H](Oc3nc(N4CCOCC4)cc4ncc(NS(C)(=O)=O)cc34)CC2)nc1 [Compound 203, N-(5-(((1s,4s)-4-((5-methoxypyrimidin-2-yl)amino)cyclohexyl)oxy)-7-morpholino-1,6-naphthyridin-3-yl)methanesulfonamide]",–,–,B (4-6=B),B (4-6=B),–

# More lines, main results first:
Microsomal Stability (human) % rem. 60 min [1],microsomal CLint at 0.1 uM [1],Compound,"CS-ER Range Score ([2]; 30 mpk + 8 Gy, 2 h)","CS-ER Range Score ([2]; 30 mpk + 8 Gy, 4 h)",other results
H (% remaining = 75-100%),< 116 µL/min/mg,"O=C(N[C@H]1CC[C@@H](Oc2nc(N3CCOCC3)cc3ncccc23)CC1)c1ncccn1 [Compound 123, N-((1s,4s)-4-((7-Morpholino-1,6-naphthyridin-5-yl)oxy)cyclohexyl)pyrimidine-2-carboxamide]",–,–,"CS-ER Range Score ([2]; 100 mpk + 10 Gy, 0.5 h): C (<4=C); CS-ER Range Score ([2]; 100 mpk + 10 Gy, 4 h): A (values >6=A); CS-ER Range Score ([2]; 100 mpk + 10 Gy, 8 h): A (values >6=A); CS-ER Range Score ([2]; 100 mpk + 10 Gy, 24 h): A (values >6=A); TGD-ER Range Score ([3]; 10 mpk + 10 Gy): B (1-2.5=B); TGD-ER Range Score ([3]; 30 mpk + 10 Gy): B (1-2.5=B); TGD-ER Range Score ([3]; 100 mpk + 10 Gy): A (values >2.5=A); TGD-ER Range Score ([3]; (30 mpk + 2 Gy) Q5D): A (values >2.5=A); TGD-ER Range Score ([3]; (30 mpk) Q5D): C (<1=C)"
F (% remaining = 25-50%),> 116 µL/min/mg,"O=C(N[C@H]1CC[C@@H](Oc2nc(N3CCOCC3)cc3ncccc23)CC1)c1cc[nH]c1 [Compound 140, N-((1s,4s)-4-((7-morpholino-1,6-naphthyridin-5-yl)oxy)cyclohexyl)-1H-pyrrole-3-carboxamide]",–,B (4-6=B),TGD-ER Range Score ([3]; 30 mpk BID + 10 Gy): C (<1=C)
F (% remaining = 25-50%),> 116 µL/min/mg,"O=C(N[C@H]1CC[C@@H](Oc2nc(N3CCOCC3)cc3ncccc23)CC1)c1ncco1 [Compound 142, N-((1s,4s)-4-((7-morpholino-1,6-naphthyridin-5-yl)oxy)cyclohexyl)oxazole-2-carboxamide]",B (4-6=B),B (4-6=B),–
G (% remaining = 50-75%),< 116 µL/min/mg,"O=C(N[C@H]1CC[C@@H](Oc2nc(N3CCOCC3)cc3ncccc23)CC1)c1c[nH]cn1 [Compound 144, N-((1s,4s)-4-((7-morpholino-1,6-naphthyridin-5-yl)oxy)cyclohexyl)-1H-imidazole-4-carboxamide]",C (<4=C),B (4-6=B),–
F (% remaining = 25-50%),> 116 µL/min/mg,"CS(=O)(=O)Nc1cnc2cc(N3CCOCC3)nc(O[C@H]3CC[C@@H](Nc4ncccn4)CC3)c2c1 [Compound 185, N-(7-morpholino-5-(((1s,4s)-4-(pyrimidin-2-ylamino)cyclohexyl)oxy)-1,6-naphthyridin-3-yl)methanesulfonamide]",–,B (4-6=B),TGD-ER Range Score ([3]; 10 mpk BID + 5 Gy): B (1-2.5=B); TGD-ER Range Score ([3]; 30 mpk BID + 5 Gy): B (1-2.5=B); TGD-ER Range Score ([3]; 100 mpk BID + 5 Gy): B (1-2.5=B)
